{"source": "patent US8207159B2", "about": "“Use of galanthamine for the treatment of pathological manifestations of the central nervous system based on intoxications with psychotropic substances” (priority 2001, dated 2012)", "key": {"rats": {"test_system": "rats", "assay": "Animal experiments: administration of galanthamine to rats, cognitive abilities", "assay_type": "in vivo, rat", "settings": "restoration did not occur, or occurred only considerably later, in untreated control animals", "excerpt": "(§1) A further advantage in this connexion is in particular that better control over the addictive behaviour is made possible, so that the risk of relapse is reduced."}, "[1]": {"test_system": "chronically dependent alcoholics", "assay": "Clinical studies on chronically dependent alcoholics, cognitive performance", "assay_type": "in vivo, human", "excerpt": "as §1"}}}
{"smiles": "COc1ccc2c3c1O[C@H]1C[C@@H](O)C=C[C@@]31CCN(C)C2", "note": "[galanthamine, 4a,5,9,10,11,12-hexahydro-3-methoxy-11-methyl-6-H-benzofuro-(3a,3,2-ef)-(2)-benzazepin-6-ol]", "values": [{"measurement": "recovery of cognitive abilities", "setting": "rats", "value": "recovery of cognitive abilities"}, {"measurement": "cognitive performance of the subjects", "setting": "[1]", "value": "general improvement in the cognitive performance"}]}
